Laboratory results published in PMC8595825 (Journal of medicinal chemistry, 2021).

Test system: M. tuberculosis H37Rv
Type: cell-based, Mycobacterium tuberculosis H37Rv
Conditions: 1× to 8× MIC90, 8 weeks, 3 × 10^8 cells

Compound	spontaneous mutation frequency
CCCCCCCn1c2c([n+](CCCCC)c1C)C(=O)c1ccccc1C2=O.[Br-] [compound 48]	< 3 × 10^−9 /CFU
CCCCCCCCn1c2c([n+](CCCC)c1C)C(=O)c1ccccc1C2=O.[Br-] [compound 32]	< 3 × 10^−9 /CFU
